Test results taken from the supplement of paper PMC12076712.

Assays:
Assay in all cases: pIC50, kinobeads binding competition
TAOK1 = target: T1, TAOK1 (UniProt Q7L7X3)
T1 sequence (whole entry): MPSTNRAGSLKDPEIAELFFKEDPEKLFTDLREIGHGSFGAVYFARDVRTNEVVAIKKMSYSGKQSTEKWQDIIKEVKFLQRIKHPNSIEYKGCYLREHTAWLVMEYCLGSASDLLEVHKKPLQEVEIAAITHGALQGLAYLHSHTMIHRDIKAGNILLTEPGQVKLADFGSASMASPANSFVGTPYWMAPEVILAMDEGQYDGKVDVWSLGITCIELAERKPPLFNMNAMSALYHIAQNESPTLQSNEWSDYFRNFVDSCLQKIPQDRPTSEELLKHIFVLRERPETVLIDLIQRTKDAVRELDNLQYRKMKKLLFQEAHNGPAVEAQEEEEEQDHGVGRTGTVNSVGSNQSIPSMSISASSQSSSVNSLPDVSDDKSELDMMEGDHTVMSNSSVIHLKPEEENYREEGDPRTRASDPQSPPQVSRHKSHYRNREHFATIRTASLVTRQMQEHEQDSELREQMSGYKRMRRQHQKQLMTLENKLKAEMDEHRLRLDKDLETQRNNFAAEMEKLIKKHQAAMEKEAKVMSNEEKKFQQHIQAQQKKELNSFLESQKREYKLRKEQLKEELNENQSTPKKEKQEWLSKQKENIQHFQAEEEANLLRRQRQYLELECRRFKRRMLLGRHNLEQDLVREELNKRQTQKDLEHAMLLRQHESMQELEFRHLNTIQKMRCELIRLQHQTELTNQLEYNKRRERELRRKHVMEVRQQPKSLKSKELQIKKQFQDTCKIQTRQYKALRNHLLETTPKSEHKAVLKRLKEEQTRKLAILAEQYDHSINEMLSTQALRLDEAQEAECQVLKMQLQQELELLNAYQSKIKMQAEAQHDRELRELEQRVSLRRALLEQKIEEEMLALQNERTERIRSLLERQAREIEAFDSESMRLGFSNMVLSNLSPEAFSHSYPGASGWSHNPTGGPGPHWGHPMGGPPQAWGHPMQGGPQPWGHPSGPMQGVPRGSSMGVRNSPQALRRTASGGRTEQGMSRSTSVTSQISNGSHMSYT
Method in brief: (§1)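 To obtain pIC50, fold changes versus vehicle were fitted to logistic dose-response curves (R drc package) across biological duplicates. Protein binding to Kinobeads was quantified by TMT10 LC-MS/MS of digested bead-bound proteins. Treatments used nine concentrations with a top of 30 μM, applied to live Jurkat cells in 1:4 steps for 60 min at 37 °C before lysis, or to Jurkat lysate or a 1:1:1:1 HEK293/K-562/HepG2/placenta lysate mix in 1:5 steps for 60 min at 4 °C.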

UniProt Q9BVS4 = target: UniProt Q9BVS4
Method in brief: as §1

STK35 = STK35 (UniProt Q8TDR2)
Method in brief: as §1

FGR = FGR (UniProt P09769)
Method in brief: as §1

MARK1 = MARK1 (UniProt Q9P0L2); conditions: cell material: Lysate mix
Method in brief: as §1

UniProt Q13188 = target: T2, UniProt Q13188
T2 sequence (whole entry): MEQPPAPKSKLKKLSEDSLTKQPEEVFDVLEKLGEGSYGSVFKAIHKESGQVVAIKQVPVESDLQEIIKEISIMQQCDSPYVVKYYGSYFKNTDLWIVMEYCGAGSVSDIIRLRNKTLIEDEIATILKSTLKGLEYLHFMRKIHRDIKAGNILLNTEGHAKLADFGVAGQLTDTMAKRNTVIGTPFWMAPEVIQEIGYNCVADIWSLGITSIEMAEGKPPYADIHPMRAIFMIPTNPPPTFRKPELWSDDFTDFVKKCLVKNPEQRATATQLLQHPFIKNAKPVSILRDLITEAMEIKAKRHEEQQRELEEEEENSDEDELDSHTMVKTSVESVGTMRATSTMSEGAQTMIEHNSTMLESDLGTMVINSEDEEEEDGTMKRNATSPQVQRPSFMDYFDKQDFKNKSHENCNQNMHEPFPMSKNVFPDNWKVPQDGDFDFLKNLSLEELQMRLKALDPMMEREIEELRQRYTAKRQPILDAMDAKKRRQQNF
Method in brief: as §1

MAPK11 = MAPK11 (UniProt Q15759)
Method in brief: as §1

UniProt Q9BVS4, sequence (Q9BVS4 whole entry, looked up): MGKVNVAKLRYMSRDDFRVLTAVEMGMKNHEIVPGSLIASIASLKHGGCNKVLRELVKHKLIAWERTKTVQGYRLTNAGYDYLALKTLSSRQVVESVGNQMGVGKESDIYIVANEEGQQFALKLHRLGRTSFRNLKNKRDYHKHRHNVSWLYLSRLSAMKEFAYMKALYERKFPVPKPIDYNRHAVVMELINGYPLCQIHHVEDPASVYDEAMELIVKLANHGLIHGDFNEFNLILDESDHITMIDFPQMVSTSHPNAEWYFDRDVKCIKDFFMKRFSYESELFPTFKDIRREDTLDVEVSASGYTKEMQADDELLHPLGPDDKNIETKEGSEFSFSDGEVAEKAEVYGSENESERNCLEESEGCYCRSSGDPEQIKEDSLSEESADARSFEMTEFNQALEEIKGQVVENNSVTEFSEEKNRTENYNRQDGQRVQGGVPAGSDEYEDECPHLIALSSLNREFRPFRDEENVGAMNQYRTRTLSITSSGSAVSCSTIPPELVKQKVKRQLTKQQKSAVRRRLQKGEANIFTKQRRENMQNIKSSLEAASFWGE
FGR, sequence (P09769 whole entry, looked up): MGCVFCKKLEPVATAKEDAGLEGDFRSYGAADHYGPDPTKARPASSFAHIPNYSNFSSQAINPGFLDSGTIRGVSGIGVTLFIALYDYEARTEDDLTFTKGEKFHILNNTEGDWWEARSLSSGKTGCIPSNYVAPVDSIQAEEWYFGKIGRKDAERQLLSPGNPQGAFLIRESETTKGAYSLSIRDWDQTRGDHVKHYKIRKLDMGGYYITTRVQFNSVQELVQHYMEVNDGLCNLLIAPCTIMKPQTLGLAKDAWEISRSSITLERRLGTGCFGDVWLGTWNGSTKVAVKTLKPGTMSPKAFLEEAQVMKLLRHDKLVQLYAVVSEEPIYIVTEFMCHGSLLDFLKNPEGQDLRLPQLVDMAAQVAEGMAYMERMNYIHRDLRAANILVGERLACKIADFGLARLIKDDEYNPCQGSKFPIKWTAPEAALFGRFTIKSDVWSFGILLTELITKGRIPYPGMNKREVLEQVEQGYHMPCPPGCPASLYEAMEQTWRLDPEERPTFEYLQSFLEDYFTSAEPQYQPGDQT
STK35, sequence (Q8TDR2 whole entry): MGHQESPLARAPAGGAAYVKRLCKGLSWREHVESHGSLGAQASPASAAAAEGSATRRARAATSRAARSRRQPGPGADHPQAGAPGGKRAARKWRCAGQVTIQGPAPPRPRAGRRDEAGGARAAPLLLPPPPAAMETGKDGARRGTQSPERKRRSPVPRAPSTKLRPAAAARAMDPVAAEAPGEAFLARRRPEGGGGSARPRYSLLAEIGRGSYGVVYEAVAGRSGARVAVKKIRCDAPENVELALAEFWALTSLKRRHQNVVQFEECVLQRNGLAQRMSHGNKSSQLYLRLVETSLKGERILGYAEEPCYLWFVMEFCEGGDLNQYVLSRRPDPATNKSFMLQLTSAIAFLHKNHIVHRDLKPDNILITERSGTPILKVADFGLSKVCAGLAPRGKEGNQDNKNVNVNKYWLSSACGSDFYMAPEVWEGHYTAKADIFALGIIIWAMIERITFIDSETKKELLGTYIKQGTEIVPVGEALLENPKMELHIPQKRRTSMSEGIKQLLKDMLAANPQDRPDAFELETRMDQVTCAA
MARK1, sequence (Q9P0L2 whole entry, looked up): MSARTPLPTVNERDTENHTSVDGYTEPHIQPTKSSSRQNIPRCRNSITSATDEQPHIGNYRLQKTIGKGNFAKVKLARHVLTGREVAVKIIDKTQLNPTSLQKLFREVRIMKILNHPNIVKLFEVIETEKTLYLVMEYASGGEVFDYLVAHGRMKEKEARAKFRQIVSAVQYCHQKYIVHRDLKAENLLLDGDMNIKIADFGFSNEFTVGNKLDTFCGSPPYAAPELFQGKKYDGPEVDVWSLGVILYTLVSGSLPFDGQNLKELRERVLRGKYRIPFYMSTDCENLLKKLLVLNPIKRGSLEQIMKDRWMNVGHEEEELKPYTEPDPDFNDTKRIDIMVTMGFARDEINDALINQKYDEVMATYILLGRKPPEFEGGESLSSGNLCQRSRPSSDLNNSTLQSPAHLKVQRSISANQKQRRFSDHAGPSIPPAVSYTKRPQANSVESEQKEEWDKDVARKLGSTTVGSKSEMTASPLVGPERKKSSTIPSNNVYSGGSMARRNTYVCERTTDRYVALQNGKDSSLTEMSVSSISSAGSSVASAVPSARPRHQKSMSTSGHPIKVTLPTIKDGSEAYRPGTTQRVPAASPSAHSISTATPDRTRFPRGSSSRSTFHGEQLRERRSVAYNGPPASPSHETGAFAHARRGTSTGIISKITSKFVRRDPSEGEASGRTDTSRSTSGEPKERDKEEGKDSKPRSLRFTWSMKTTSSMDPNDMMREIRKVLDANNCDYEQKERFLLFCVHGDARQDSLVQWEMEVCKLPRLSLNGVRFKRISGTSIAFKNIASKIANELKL
MAPK11, sequence (Q15759 whole entry): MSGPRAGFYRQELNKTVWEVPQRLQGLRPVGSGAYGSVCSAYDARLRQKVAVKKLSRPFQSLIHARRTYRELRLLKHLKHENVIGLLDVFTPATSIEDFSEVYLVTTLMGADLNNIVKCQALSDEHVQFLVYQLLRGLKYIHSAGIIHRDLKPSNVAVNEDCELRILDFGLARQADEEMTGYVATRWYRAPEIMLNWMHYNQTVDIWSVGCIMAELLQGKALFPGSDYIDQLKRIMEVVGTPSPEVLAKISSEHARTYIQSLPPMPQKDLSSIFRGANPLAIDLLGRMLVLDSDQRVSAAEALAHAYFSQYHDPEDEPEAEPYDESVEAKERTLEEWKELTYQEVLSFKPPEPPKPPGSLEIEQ

pIC50 (TAOK1; cell material: Lysate mix) | pIC50 (UniProt Q9BVS4; cell material: Lysate mix) | pIC50 (STK35; cell material: Lysate mix) | pIC50 (FGR; cell material: Jurkat cells) | pIC50 (MARK1) | pIC50 (UniProt Q13188; cell material: Lysate mix) | pIC50 (MAPK11; cell material: Jurkat cells) | pIC50 (MAPK11; cell material: Lysate mix) | pIC50 (FGR; cell material: Lysate mix) | SMILES | pIC50 (TAOK1; cell material: Jurkat cells) | pIC50 (TAOK1; cell material: Jurkat lysate) | pIC50 (UniProt Q9BVS4; cell material: Jurkat cells) | pIC50 (UniProt Q9BVS4; cell material: Jurkat lysate) | pIC50 (STK35; cell material: Jurkat cells) | pIC50 (STK35; cell material: Jurkat lysate) | pIC50 (FGR; cell material: Jurkat lysate) | pIC50 (UniProt Q13188; cell material: Jurkat cells) | pIC50 (MAPK11; cell material: Jurkat lysate) | pIC50 (UniProt Q13188; cell material: Jurkat lysate)
6.1 | < 4.52 | 5.2 | 5.92 | < 4.52 | < 4.52 | < 4.52 | < 4.52 |  | O=C(NCCNC(=O)c1cc(Nc2cc(C3CC3)[nH]n2)nc(N2CCN(Cc3ccc(S(=O)(=O)F)cc3)CC2)n1)OC1CC/C=C/CCC1 (configuration not stated) | 5.96 | 5.65 | < 4.52 | < 4.52 | 6.88 | 5.19 | < 4.52 | 5.6 | < 4.52 | 
5.87 | < 4.52 | 4.91 |  | < 4.52 | < 4.52 |  | < 4.52 | < 4.52 | Cc1cc(Nc2cc(C(=O)NCCNC(=O)OC3CC/C=C/CCC3)nc(N3CCN(Cc4ccc(S(=O)(=O)F)cc4)CC3)n2)n[nH]1 (configuration not stated) |  |  |  |  |  |  |  |  |  | 
< 4.52 | < 4.52 | 6.58 |  | < 4.52 | 5.94 |  | < 4.52 | 5.92 | CCNC(=O)c1cc(Nc2cc(C3CC3)[nH]n2)nc(N2CCN(Cc3ccc(S(=O)(=O)F)cc3)CC2)n1 |  |  |  |  |  |  |  |  |  | 
< 4.52 | < 4.52 | 6.51 |  | < 4.52 | 5.64 |  | < 4.52 | 5.92 | CCNC(=O)c1cc(Nc2cc(C)[nH]n2)nc(N2CCN(Cc3ccc(S(=O)(=O)F)cc3)CC2)n1 |  |  |  |  |  |  |  |  |  | 
< 4.52 | < 4.52 | 6.01 |  | < 4.52 | 5.6 |  | < 4.52 | 5.51 | C#CCNC(=O)c1cc(Nc2cc(C)[nH]n2)nc(N2CCN(Cc3ccc(S(=O)(=O)F)cc3)CC2)n1 |  |  |  |  |  |  |  |  |  | 

SMILES | pIC50 (TAOK1; cell material: Lysate mix) | pIC50 (UniProt Q9BVS4; cell material: Lysate mix) | pIC50 (STK35; cell material: Lysate mix) | pIC50 (FGR; cell material: Jurkat cells) | pIC50 (MARK1) | pIC50 (UniProt Q13188; cell material: Lysate mix) | pIC50 (MAPK11; cell material: Jurkat cells) | pIC50 (MAPK11; cell material: Lysate mix) | pIC50 (FGR; cell material: Lysate mix) | pIC50 (TAOK1; cell material: Jurkat cells) | pIC50 (TAOK1; cell material: Jurkat lysate) | pIC50 (UniProt Q9BVS4; cell material: Jurkat cells) | pIC50 (UniProt Q9BVS4; cell material: Jurkat lysate) | pIC50 (STK35; cell material: Jurkat cells) | pIC50 (STK35; cell material: Jurkat lysate) | pIC50 (FGR; cell material: Jurkat lysate) | pIC50 (UniProt Q13188; cell material: Jurkat cells) | pIC50 (MAPK11; cell material: Jurkat lysate) | pIC50 (UniProt Q13188; cell material: Jurkat lysate)
C#CCNC(=O)c1cc(Nc2cc(C3CC3)[nH]n2)nc(N2CCN(Cc3ccc(S(=O)(=O)F)cc3)CC2)n1 | < 4.52 | < 4.52 | 6.96 |  | < 4.52 | 6.27 |  | < 4.52 | 6.2 | 5.6 | < 4.52 | 5.12 | < 4.52 | 6.96 | 6.1 | 5.6 | 6.3 | < 4.52 | 5.64
